# Test results as given in paper PMC10458458, “Characterization of Anticancer Effects of the Analogs of DJ4, a Novel Selective Inhibitor of ROCK and MRCK Kinases” (Pharmaceuticals, 2023).
# Key:
# [1] = system: A549; assay: MTT cytotoxicity assay, 72 h; type: cell-based; conditions: Homo sapiens, A549 NSCLC cells, plated to confluence, read-out: IC50 (mean cytotoxic concentration, MTT)
# Experimental: To determine whether the effects on cell viability in AML cells were related to the specific cancer subtypes, or to differences in temporal response to DJ4, we examined whether DJ4 affected the viability of various NSCLC cells over longer periods of drug exposure. MTT assays were performed on H1299, H226, A549, H522, H23, and H460 NSCLC cell lines. […] Similarly, the cell viability of MDA-MB-231 breast cancer cells was assessed by counting live/dead cell populations after a 24-h treatment with 1–10 µM concentrations of DJ4. A concentration-dependent increase in cell death from 29% (1 µM) to 47% (10 µM) was observed (Figure 2B).
# The cytotoxic effect of DJ4 was studied in H1299, H226, A549, H522, H23, and H460 non-small cell lung cancer cells. The cells were seeded into 96-well plates with confluence ([…]). The cells were further treated with DMSO or DJ4 for 72 h. To study the effects of analogs, A549, A375M, and MDA-MB-231 cells were plated with low density (2000 cells/well) in a 96-well plate and grown overnight at 37 °C (with 5% CO2). Cells were treated with the analogs at the concentration of 0–10 µM for 48 h. At the end of the treatment period, cells were incubated with a tetrazolium dye MTT (3-(4,5-dimethylthiazol-2-yl)-2,5-diphenyltetrazolium bromide) reagent (Sigma) at 37 °C for 3 h to develop formazan crystals. The media was siphoned off and crystals were dissolved in DMSO and mixed gently on rocker for 5 min. Absorbance was read at 570 nm and 630 nm (background) wavelength. IC50 values were calculated from non-linear regression curve fit by using GraphPad Prism 5.0 software.
# [2] = system: pMYPT1 (Thr696 and Thr853) in MDA-MB-231 cells; assay: Western blot of MYPT1 phosphorylation (ROCK1/2 targeting); type: cell-based, human; conditions: MDA-MB-231, 2.5, 5.0 and 10 µM, 24 h
# Experimental: (§1) To extend these observations to MDA-MB-231 breast cancer cells, cells were treated with DJ4 at 2.5, 5.0, and 10 µM for 24 h. ROCK1/2 catalyzes the inactivating phosphorylation of the myosin phosphatase subunit MYPT1 at Thr696 and Thr853 [16]. To confirm the targeting of ROCK1/2 by DJ4 in MDA-MB-231 cells, we probed for phosphorylation of MYPT1.
# (§2) For protein expression studies, MDA-MB-231 cells were treated with indicated concentrations of DJ4 for 24 h. Additionally, A549 cells were treated for 24 h and 48 h. Cell lysate preparation, protein estimation, and Western blot analysis was performed as per the procedure reported earlier. The blots were probed with cleaved caspase 7 (#9492, Cell Signaling, Danvers, MA, USA), GAPDH (#97166, Cell Signaling, Danvers, MA, USA), β-Actin (#3700, Cell Signaling, Danvers, MA, USA), pErk (#5726, Cell Signaling, Danvers, MA, USA), p21 ^WAF1/CIP1 (#60480, Cell Signaling, Danvers, MA, USA), cyclinD3 (#2936, Cell Signaling, Danvers, MA, USA), CDK4 (#23972, Cell Signaling, Danvers, MA, USA), cleaved PARP (#32563, Cell Signaling, Danvers, MA, USA), pan Erk (#23887, Cell Signaling, Danvers, MA, USA), pMYPT1 (Thr853, # SAB4503944, Millipore, Inc., Burlington, MA, USA) and PCNA (#sc-56, Santa Cruz Biotechnology, Inc., Dallas, TX, USA) antibodies.
# [3] = system: MDA-MB-231 breast cancer cells; assay: Western blot of proliferation and apoptosis proteins; type: cell-based, human; conditions: 24 h
# Experimental: as §1
# In contrast, expression of proliferating cell nuclear antigen (PCNA) protein was decreased at all the concentrations (Figure 4C). PCNA is highly expressed during active DNA synthesis (S phase).
# as §2
# [4] = system: HL60VCR acute myeloid leukemia cells; assay: Cell number and cell cycle in multidrug resistant cells; type: cell-based, human; conditions: 2.5 µM and 5 µM
# Experimental: The following cell lines used in this study were obtained from ATCC: NSCLC (A549, CCL-185; H522, CRL-5810; H23, CRL-5800; H2126, CCL-256; H460, HTB-177), melanoma (A375M, CRL-1619), and breast cancer (MDA-MB-231, HTB-26). Cells were maintained in DMEM or RPMI media (Cellgro, Corning, NY, USA) supplemented with 10% fetal bovine serum (Gibco, Fisher Scientific, Hampton, NH, USA) and penicillin/streptomycin (Gibco, Fisher Scientific, Hampton, NH, USA) at 37 °C with 5% CO2 humidified incubator. Acute myeloid leukemia cells (AML, HL60; CCL240) were obtained from ATCC while vincristine resistant HL60 (HL60VCR) cells were a gift from Dr. Hong-Gang Wang (Penn State College of Medicine, Hershey, PA, USA) and both the cells were cultured in IMDM medium (HyClone, Washington, D.C., USA) with 10% FBS.
# Figure S3. DJ4 was ineffective in multidrug resistant HL60VCR acute myeloid leukemia cells.
# A. Endogenous expression of p-glycoprotein (P-gp) in HL60 and HL60VCR (multidrug resistant cells). β-Actin was used as internal control.
# B. P-gp inhibitor cyclosporine A (CsA) treatment (2.5 µM) sensitized resistant cancer cells to DJ4. […] Number of cells were counted using MuseTM cell analyzer.
# Statistical significance was analyzed by one-way ANOVA and Dunnett’s multiple comparison post-test. […]
# C. […] The cells were treated at 2.5 µM and 5 µM concentrations and analyzed using flow cytometry. […]
# [5] = MDA-MB-231, all concentrations (2.5, 5.0, 10 µM)
compound,measurement,setting,value
O=C1N/C(=N\CCc2ccccc2)S/C1=C/c1c[nH]c2ncccc12 [DJ4],IC50,[1],0.98 ± 0.21 µM
same,pMYPT1 (Thr696 and Thr853),[2],concentration-dependent decrease
same,expression of pErk,"[3]; MDA-MB-231, 2.5, 5.0 and 10 µM",significantly increased
same,cleaved PARP,[3]; [5],corresponding increases
same,expression of PCNA,[3]; [5],decreased
same,expression of cleaved caspase 7,[3]; [5],significantly increased
same,effect in multidrug resistant cells,[4],ineffective
